Laboratory results taken from ChEMBL document CHEMBL2069302, “Nortriterpene glycosides of the sarasinoside class from the sponge Lipastrotethya sp” (J Nat Prod, 2012).

What was measured:
[1] = target: Sodium/potassium-transporting ATPase; experiment: Inhibition of Sodium/potassium-transporting ATPase; format: protein-complex assay, Homo sapiens
A549 = experiment: Cytotoxicity against human A549 cells; format: functional; conditions: read-out: LC50 (the source's name)
K562 = experiment: Cytotoxicity against human K562 cells; format: functional; conditions: read-out: LC50 (the source's name)

| Structure (SMILES) | IC50 [1] [µM] | CC50 (A549) [µM] | CC50 (K562) [µM] |
| --- | --- | --- | --- |
| CC(=O)N[C@H]1[C@H](O[C@H]2[C@H](O[C@H]3CC[C@]4(C)C5=C(CC[C@H]4C3(C)C)[C@@H]3CC[C@H]([C@H](C)CC(=O)C=C(C)C)[C@@]3(C)CC5)OC[C@@H](O)[C@@H]2O)O[C@H](CO[C@@H]2O[C@H](CO)[C@@H](O)[C@H](O)[C@H]2O[C@@H]2O[C@H](CO)[C@@H](O)[C@H](O)[C@H]2O)[C@@H](O)[C@@H]1O | 54.7 | 9.1 | 18.7 |
| CC(=O)N[C@H]1[C@H](O[C@@H]2CO[C@@H](O[C@H]3CC[C@]4(C)C5=C(CC[C@H]4C3(C)C)[C@@H]3CC[C@H]([C@H](C)CC(=O)C=C(C)C)[C@@]3(C)CC5)[C@H](O[C@@H]3O[C@H](CO)[C@@H](O)[C@H](O)[C@H]3NC(C)=O)[C@H]2O)O[C@H](CO)[C@H](O)[C@@H]1O (relative stereo) | 56.1 | 10.7 | 20.2 |
| CC(=O)N[C@H]1[C@H](O[C@@H]2CO[C@@H](O[C@H]3CC[C@]4(C)C5=CC[C@]6(C)[C@@H]([C@H](C)CC(=O)C=C(C)C)CC[C@H]6C5=CC[C@H]4C3(C)C)[C@H](O[C@@H]3O[C@H](CO[C@@H]4O[C@H](CO)[C@@H](O)[C@H](O)[C@H]4O[C@@H]4O[C@H](CO)[C@@H](O)[C@H](O)[C@H]4O)[C@@H](O)[C@H](O)[C@H]3NC(C)=O)[C@H]2O)O[C@H](CO)[C@H](O)[C@@H]1O [SARASINOSIDE A2] | > 77.7 | 7.6 | 8.5 |
| CC(=O)N[C@H]1[C@H](O[C@@H]2CO[C@@H](O[C@H]3CC[C@]4(C)C5=CC[C@@]6(C)C(=C(CC[C@H]4C3(C)C)O5)CC[C@@H]6[C@H](C)CC(=O)C=C(C)C)[C@H](O[C@@H]3O[C@H](CO[C@@H]4O[C@H](CO)[C@@H](O)[C@H](O)[C@H]4O[C@@H]4O[C@H](CO)[C@@H](O)[C@H](O)[C@H]4O)[C@@H](O)[C@H](O)[C@H]3NC(C)=O)[C@H]2O)O[C@H](CO)[C@H](O)[C@@H]1O [SARASINOSIDE M] | > 76.7 | 7.7 | 12.1 |
| CC(=O)N[C@H]1[C@H](O[C@@H]2CO[C@@H](O[C@H]3CC[C@]4(C)C5=C(CC[C@H]4C3(C)C)C3=CC[C@H]([C@H](C)CC(=O)C=C(C)C)[C@@]3(C)CC5)[C@H](O[C@@H]3O[C@H](CO[C@@H]4O[C@H](CO)[C@@H](O)[C@H](O)[C@H]4O[C@@H]4O[C@H](CO)[C@@H](O)[C@H](O)[C@H]4O)[C@@H](O)[C@H](O)[C@H]3NC(C)=O)[C@H]2O)O[C@H](CO)[C@H](O)[C@@H]1O [SARASINOSIDE A3] | > 77.7 | 10.1 | 24.8 |
| CO[C@@H]1C[C@H]([C@H](C)CC(=O)C=C(C)C)[C@@]2(C)CC[C@@]3(O)C(=C12)CC[C@H]1C(C)(C)[C@@H](O[C@@H]2OC[C@@H](O[C@@H]4O[C@H](CO)[C@H](O)[C@H](O)[C@H]4NC(C)=O)[C@H](O)[C@H]2O[C@@H]2O[C@H](CO[C@@H]4O[C@H](CO)[C@@H](O)[C@H](O)[C@H]4O[C@@H]4O[C@H](CO)[C@@H](O)[C@H](O)[C@H]4O)[C@@H](O)[C@H](O)[C@H]2NC(C)=O)CC[C@@]13C [SARASINOSIDE H2] | > 74.9 | > 100 | 42.7 |
| COc1cccc2c1C(=O)c1c(O)c3c(c(O)c1C2=O)C[C@@](O)(C(=O)CO)C[C@@H]3O[C@H]1C[C@H](N)[C@H](O)[C@H](C)O1 [DOXORUBICIN] | – | 1.7 | 4.7 |
| CC(=O)N[C@H]1[C@H](O[C@@H]2CO[C@@H](O[C@H]3CC[C@]4(C)C5=C(CC[C@H]4C3(C)C)[C@@H]3CC[C@H]([C@H](C)CC(=O)CC(C)(C)O)[C@@]3(C)CC5)[C@H](O[C@@H]3O[C@H](CO[C@@H]4O[C@H](CO)[C@@H](O)[C@H](O)[C@H]4O[C@@H]4O[C@H](CO)[C@@H](O)[C@H](O)[C@H]4O)[C@@H](O)[C@H](O)[C@H]3NC(C)=O)[C@H]2O)O[C@H](CO)[C@H](O)[C@@H]1O [SARASINOSIDE J] | > 76.5 | 10.3 | 20.8 |
| CC(=O)N[C@H]1[C@H](O[C@@H]2CO[C@@H](O[C@H]3CC[C@@]4(C)[C@@H](CCC5=C6[C@H](O)C[C@H]([C@H](C)CC(=O)C=C(C)C)[C@@]6(C)CC[C@@]54O)C3(C)C)[C@H](O[C@@H]3O[C@H](CO[C@@H]4O[C@H](CO)[C@@H](O)[C@H](O)[C@H]4O[C@@H]4O[C@H](CO)[C@@H](O)[C@H](O)[C@H]4O)[C@@H](O)[C@H](O)[C@H]3NC(C)=O)[C@H]2O)O[C@H](CO)[C@H](O)[C@@H]1O [SARASINOSIDE H1] | > 75.7 | 14.2 | 37.4 |
| CC(C)=CC(=O)C[C@@H](C)[C@H]1CCC2=C3CC[C@H]4C(C)(C)[C@@H](O)CC[C@]4(C)[C@H]3CC[C@@]21C | > 234 | 41.6 | 69.4 |
| CC(=O)N[C@H]1[C@H](O[C@@H]2CO[C@@H](O[C@H]3CC[C@]4(C)C5=CC[C@]6(C)[C@@H]([C@H](C)CC(=O)C=C(C)C)CC[C@H]6[C@]5(O)CC[C@]4(O)C3(C)C)[C@H](O[C@@H]3O[C@H](CO[C@@H]4O[C@H](CO)[C@@H](O)[C@H](O)[C@H]4O[C@@H]4O[C@H](CO)[C@@H](O)[C@H](O)[C@H]4O)[C@@H](O)[C@H](O)[C@H]3NC(C)=O)[C@H]2O)O[C@H](CO)[C@H](O)[C@@H]1O [SARASINOSIDE P] | > 75.7 | 17.9 | 11.6 |
| CC(=O)N[C@H]1[C@H](O[C@@H]2CO[C@@H](O[C@H]3CC[C@@]4(C)[C@@H](CCC5=C6CC[C@H]([C@H](C)CC(=O)C=C(C)C)[C@@]6(C)CC[C@@]4(O)O5)C3(C)C)[C@H](O[C@@H]3O[C@H](CO[C@@H]4O[C@H](CO)[C@@H](O)[C@H](O)[C@H]4O[C@@H]4O[C@H](CO)[C@@H](O)[C@H](O)[C@H]4O)[C@@H](O)[C@H](O)[C@H]3NC(C)=O)[C@H]2O)O[C@H](CO)[C@H](O)[C@@H]1O [SARASINOSIDE Q] | > 75.7 | 14 | 17.9 |
| CC(=O)N[C@H]1[C@H](O[C@@H]2CO[C@@H](O[C@H]3CC[C@]4(C)C5=CC[C@]6(C)[C@@H]([C@H](C)CC(=O)C=C(C)C)CC[C@H]6[C@@]5(O)CC[C@@]4(O)C3(C)C)[C@H](O[C@@H]3O[C@H](CO[C@@H]4O[C@H](CO)[C@@H](O)[C@H](O)[C@H]4O[C@@H]4O[C@H](CO)[C@@H](O)[C@H](O)[C@H]4O)[C@@H](O)[C@H](O)[C@H]3NC(C)=O)[C@H]2O)O[C@H](CO)[C@H](O)[C@@H]1O [SARASINOSIDE O] | > 75.7 | 54.7 | 61.5 |
| CC(=O)N[C@H]1[C@H](O[C@@H]2CO[C@@H](O[C@H]3CC[C@]4(C)C5=C(CC[C@H]4C3(C)C)[C@@H]3CC[C@H]([C@H](C)CC(=O)C=C(C)C)[C@@]3(C)CC5)[C@H](O[C@@H]3O[C@H](CO[C@@H]4O[C@H](CO)[C@@H](O)[C@H](O)[C@H]4O[C@@H]4O[C@H](CO)[C@@H](O)[C@H](O)[C@H]4O)[C@@H](O)[C@H](O)[C@H]3NC(C)=O)[C@H]2O)O[C@H](CO)[C@H](O)[C@@H]1O [SARASINOSIDE A1] | 46.5 | 7.6 | 7.4 |
| CC(=O)N[C@H]1[C@H](O[C@@H]2CO[C@@H](O[C@H]3CC[C@@]4(C)[C@@H](CC[C@@]5(O)[C@]4(O)CC=C4[C@@H]([C@H](C)CC(=O)C=C(C)C)CC[C@@]45C)C3(C)C)[C@H](O[C@@H]3O[C@H](CO[C@@H]4O[C@H](CO)[C@@H](O)[C@H](O)[C@H]4O[C@@H]4O[C@H](CO)[C@@H](O)[C@H](O)[C@H]4O)[C@@H](O)[C@H](O)[C@H]3NC(C)=O)[C@H]2O)O[C@H](CO)[C@H](O)[C@@H]1O [SARASINOSIDE R] | > 75.7 | 14.7 | > 100 |
